Assay results reported in ChEMBL document CHEMBL1136948, “Non-nucleoside inhibitors of HCV NS5B polymerase. Part 1: Synthetic and computational exploration of the binding modes of benzothiadiazine and 1,4-benzothiazine HCV NS5b polymerase inhibitors” (Bioorg Med Chem Lett, 2009).
pEC50, pIC50: −log10 of the molar value.

Columns and labels:
Hepatitis C virus [1] = assay: Inhibition of HCV 1b NS5B polymerase; assay type: organism-based, Hepatitis C virus subtype 1b
Hepatitis C virus [2] = assay: Antiviral activity against HCV 1b replication in human 2209-23 cells assessed as [3H]thymidine incorporation into cellular DNA by scintillation proximity assay; assay type: functional, organism-based, Hepacivirus hominis; conditions: genotype 1b
Hepatitis C virus [3] = assay: Inhibition of HCV 1b J4 NS5B Cdelta 21polymerase over expressed in Escherichia coli assessed as [alpha33P]UTP incorporation; parameters: species or system Hepatitis C virus subtype 1b
Hepatitis C virus [4] = assay: Antiviral activity against HCV in human HuH7 cells by replicon assay; assay type: functional, organism-based, Hepacivirus hominis; conditions: Huh-7
[5] = Apparent permeability from apical to basolateral side of human Caco-2 cells after 21 days
[6] = Apparent permeability from basolateral to apical side of human Caco-2 cells after 21 days
[7] = Apparent permeability across human Caco-2 cells after 7 days; assay type: ADME, cell-based

Row | SMILES | pIC50 (Hepatitis C virus [1]) | pEC50 (Hepatitis C virus [2]) | other results
1 | CC(C)CCn1c(=O)c(C2=NS(=O)(=O)c3ccccc3N2)c(O)c2ccccc21 | 5.96 | 6.06 | pIC50 (Hepatitis C virus [3]): 7.52
2 | CC(C)CCn1c(=O)c(C2=NS(=O)(=O)c3ccccc3N2)cc2ccccc21 | 3.17 | – | –
3 | CC(C)CCn1cc(C2=NS(=O)(=O)c3ccccc3N2)c(=O)c2ccccc21 | < 3.00 | – | –
4 | O=c1c(C2=Nc3ccccc3S(=O)(=O)N2)c(O)c2cc(F)ccc2n1CCC1CC1 | 7.00 | 6.59 | pIC50 (Hepatitis C virus [3]): 8.00; pIC50 (Hepatitis C virus [4]): 7.40
5 | CC(C)CCn1c(=O)c(C2=CS(=O)(=O)c3ccccc3N2)cc2ccccc21 | 3.06 | – | –
6 | Cc1ccc2c(c1)c(O)c(C1=CS(=O)(=O)c3ccccc3N1)c(=O)n2CCC1CC1 | 5.89 | 6.19 | Papp [7]: 94 nm/s
7 | COc1ccc2c(c1)c(O)c(C1=CS(=O)(=O)c3ccccc3N1)c(=O)n2CCC1CC1 | 5.42 | 5.15 | –
8 | O=c1c(C2=CS(=O)(=O)c3ccccc3N2)c(O)c2cccnc2n1CCC1CC1 | 5.57 | – | –
9 | CC(C)CCn1c(=O)c(C2=CS(=O)(=O)c3ccccc3N2)c(O)c2cccnc21 | 5.85 | – | –
10 | CC(C)CCn1c(=O)c(C2=CS(=O)(=O)c3ccccc3N2)c(O)c2cc(F)cnc21 | 6.08 | 5.07 | –

Continued, in another order:

Row | pIC50 (Hepatitis C virus [1]) | pEC50 (Hepatitis C virus [2]) | SMILES | other results
11 | 5.66 | 6.36 | O=S1(=O)N=C(c2nc(Cc3ccc(F)cc3)c3ccccc3c2O)c2ccccc21 | –
12 | 5.16 | 5.12 | O=S1(=O)C=C(c2nc(Cc3ccc(F)cc3)c3ccccc3c2O)Nc2ccccc21 | –
13 | 5.64 | 5.60 | CC(C)CCn1c(=O)c(C2=CS(=O)(=O)c3ccccc3N2)c(O)c2ccccc21 | –
14 | 5.92 | 5.82 | O=c1c(C2=CS(=O)(=O)c3ccccc3N2)c(O)c2cc(F)ccc2n1Cc1ccc(F)c(F)c1 | –
15 | 6.40 | 6.10 | Cc1cc(Cn2c(=O)c(C3=CS(=O)(=O)c4ccccc4N3)c(O)c3cc(F)ccc32)ccc1F | Papp A→B [5]: 5 nm/s; Papp B→A [6]: 53 nm/s
16 | 4.43 | – | N#Cc1cccc(Cn2c(=O)c(C3=CS(=O)(=O)c4ccccc4N3)c(O)c3cc(F)ccc32)c1 | –
17 | 6.14 | 6.10 | O=c1c(C2=CS(=O)(=O)c3ccccc3N2)c(O)c2ccccc2n1Cc1ccc(F)cc1 | Papp [7]: 44 nm/s
18 | 5.82 | 5.82 | Cc1ccc2c(c1)c(O)c(C1=CS(=O)(=O)c3ccccc3N1)c(=O)n2Cc1ccc(F)cc1 | –
19 | 6.15 | 6.15 | O=c1c(C2=CS(=O)(=O)c3ccccc3N2)c(O)c2cc(F)ccc2n1Cc1ccc(F)cc1 | –
20 | 4.06 | – | Cc1c(-c2ccccc2)c(O)c(C2=CS(=O)(=O)c3ccccc3N2)c(=O)n1CCC(C)C | –
21 | 5.96 | 5.92 | O=c1c(C2=CS(=O)(=O)c3ccccc3N2)c(O)c2cc(F)ccc2n1CCC1CC1 | Papp [7]: 64 nm/s; Papp A→B [5]: 6 nm/s; Papp B→A [6]: 71 nm/s
22 | 5.62 | 5.80 | O=c1c(C2=CS(=O)(=O)c3ccccc3N2)c(O)c2cc(Cl)ccc2n1CCC1CC1 | –
23 | 4.71 | – | CN1C(c2nc(Cc3ccc(F)cc3)c3ccccc3c2O)=CS(=O)(=O)c2ccccc21 | –
24 | 4.76 | 4.34 | O=c1c(C2=CS(=O)(=O)c3ccccc3N2)c(O)c2ccccc2n1Cc1ccccc1F | –
